Seven molecules from patent EP2519511B1, “NOVEL PIPERINE DERIVATIVES AS GABA-A RECEPTORS MODULATORS” (Universität Wien, priority 2009, dated 2011) can be followed below.

Several values for one entry are separate records, joined by “and”; a condition that tells them apart may be missing. Identical values can stand only once.

The test system of experiment [1] is Male mice (C57BI/6N). The experiment can be described thus: Open Field test (OF). Format: in vivo. To be noted: 30 mg/kg bodyweight; for effect on total ambulation / total distance: 30 min after i.p. injection, Fig. 11B. As for the experimental part: (§1) Piperine was isolated from Piper nigrum as described by Zaugg et al. (2010) and obtained from SigmaAldrich (Vienna, Austria), respectively. Piperine derivatives were synthesized as described above. Stock solutions (1mg/10 µl) were prepared in DMSO (Dimethyl Sulfoxide, Sigma, Austria).Working concentrations were adjusted by dilution with 0.9% sodiumchloride. pH was adjusted to 7.2-7.4 with NaOH. For better solubility 3% of Tween80 was added to all solutions. All solutions were freshly prepared every day prior to experiments. Care was taken for equal amounts of DMSO in the actein and control solutions.
(§2) Male mice (C57BI/6N) were obtained from Charles River Laboratories (Germany). For breeding and maintenance mice were group housed with free access to food and water. Temperature was fixed to 23±1 °C and 60% humidity with a 12 h light-dark cycle (lights on 0700-1900 hours). Male mice at 3-6 months age were tested in all experiments. Every effort was taken to minimize the number of animals used (Khom et al., 2010).
Ambulation was tested over 10 min in a 50x50 cm flexfield box equipped with infrared rearing detection. Illumination was set to 150 lux. Animals were video monitored and their explorative behavior was analyzed using the Actimot 2 equipment and software (TSE-systems, Bad Homburg, Germany). Arenas were subdivided into border (up to 8 cm from wall), center (20x20 cm, i.e. 16% of total area), and intermediate area according to the recommendations of EMPRESS (European Mouse Phenotyping Resource of Standardised Screens; http://empress.har.mrc.ac.uk).

The test system of the next experiment is PTZ-induced seizures. Briefly: Seizure threshold by PTZ tail-vein infusion. The class given is in vivo, mice. To be noted: for effects on seizure threshold: PTZ 30 min after i.p. injection; for seizure threshold: 30 min after i.p. injection. Here is the method: as §1, §2
Seizure threshold was determined by PTZ tail-vein infusion on freely moving animals at a rate of 100 µl/min ([…] PTZ in saline, pH 7.4). […] Animals were immediately killed by cervical displacement after the first generalized seizure. The seizure threshold dose was calculated from the infused volume in relation to body weight (Loacker et al. 2007). Piperine and piperine derivatives were applied at doses from 0.1 to 30 mg/kg 30 min before PTZ infusion. Control animals were pretreated with 10 % DMSO in saline containing 3 % Tween 80 (i. e. the solvent for all piperine doses).

In experiment [2] the target is human TRPV1 receptor (hTRPV1) (Homo sapiens, UniProt Q8NER1). The experiment can be described thus: Activation of cation current through TRPV1 expressed in Xenopus oocytes. The class given is cell-based. Conditions: 300 µM applied to oocytes, Fig. 4. Here is the method: cRNA encoding for the human TRPV1 receptor (hTRPV1) was injected into Xenopus oocytes as previously described (Hu et al. 2004).

Experiment [3] concerns the target GABAA channels composed of α1β2γ2 subunits (Homo sapiens, UniProt P14867+P18507+P47870). The experiment can be described thus: Modulation of IGABA, two-microelectrode voltage clamp in Xenopus laevis oocytes. Format: cell-based. To be noted: α1β2γ2, GABA EC5-10, Fig. 2. Here is the method: The following paragraphs describe the preparation of oocytes expressing the specific GABAA receptor subtype composed of α1, β2 and γ2 subunits and the subsequent analysis of the concentration-response curves of the stimulation of chloride currents through GABAA receptors (IGABA).
Preparation of stage V-VI oocytes from Xenopus laevis, synthesis of capped off run-off poly(A^+) cRNA transcripts from linearized cDNA templates (pCMV vector) was performed as described (Khom et al. 2006). Briefly, female Xenopus laevis (NASCO, USA) were anaesthetised by exposing them for 15 minutes to a 0.2 % solution of MS-222 (methane sulfonate salt of 3-aminobenzoic acid ethyl ester; Sandoz) before surgically removing parts of the ovaries. Follicle membranes from isolated oocytes were enzymatically digested with 2 mg/ml collagenase (Type 1A, Sigma). One day after isolation, the oocytes were injected with about […] of DEPC- treated water (diethyl pyrocarbonate, Sigma, Germany) containing the different cRNAs (encoding for α1, β2 and γ2 subunits) at a concentration of approximately 300 - 3000 pg/µl/subunit. The amount of cRNA was determined by means of a NanoDrop ND-1000 (Kiskerbiotech, Steinfurt, Germany).
Oocytes were stored at 18°C in ND96 solution (Methfessel et al., 1986). […]
Stimulation of chloride currents by modulators of the GABAA receptor was measured at a GABA concentration eliciting between 5 and 10 % of the maximal current amplitude (EC5-10). The EC5-10 was determined at the beginning of each experiment.
Enhancement of the chloride current was defined as (I(GABA+Comp)/IGABA) - 1, where I(GABA+Comp) is the current response in the presence of a given compound (piperine or piperin derivatives) and IGABA is the control GABA current. […] Statistical significance was calculated using paired Student t-test with a confidence interval of p < 0.05 (Khom et al., 2007). […]

Experiment [4] has as its system Male mice (C57BI/6N). The experiment can be described thus: Elevated Plus Maze test (EPM). Format: in vivo. To be noted: for total distance travelled in the EPM: compared to control. Here is the method: as §1, §2
The animals's behavior was tested over 5 min on an elevated plus maze 1 m above ground consisting of two closed and two open arms, each 50x5 cm in size (Khom et al., 2010). The test instrument was built from gray PVC; the height of closed arm walls was 20 cm. Illumination was set to 180 lux. Animals were placed in the center, facing an open arm. Analysis of open and closed arm entries and time on open arm was automatically done with Video-Mot 2 equipment and software (Khom et al., 2010).

Chain of human TRPV1 receptor (hTRPV1) (Q8NER1 whole entry): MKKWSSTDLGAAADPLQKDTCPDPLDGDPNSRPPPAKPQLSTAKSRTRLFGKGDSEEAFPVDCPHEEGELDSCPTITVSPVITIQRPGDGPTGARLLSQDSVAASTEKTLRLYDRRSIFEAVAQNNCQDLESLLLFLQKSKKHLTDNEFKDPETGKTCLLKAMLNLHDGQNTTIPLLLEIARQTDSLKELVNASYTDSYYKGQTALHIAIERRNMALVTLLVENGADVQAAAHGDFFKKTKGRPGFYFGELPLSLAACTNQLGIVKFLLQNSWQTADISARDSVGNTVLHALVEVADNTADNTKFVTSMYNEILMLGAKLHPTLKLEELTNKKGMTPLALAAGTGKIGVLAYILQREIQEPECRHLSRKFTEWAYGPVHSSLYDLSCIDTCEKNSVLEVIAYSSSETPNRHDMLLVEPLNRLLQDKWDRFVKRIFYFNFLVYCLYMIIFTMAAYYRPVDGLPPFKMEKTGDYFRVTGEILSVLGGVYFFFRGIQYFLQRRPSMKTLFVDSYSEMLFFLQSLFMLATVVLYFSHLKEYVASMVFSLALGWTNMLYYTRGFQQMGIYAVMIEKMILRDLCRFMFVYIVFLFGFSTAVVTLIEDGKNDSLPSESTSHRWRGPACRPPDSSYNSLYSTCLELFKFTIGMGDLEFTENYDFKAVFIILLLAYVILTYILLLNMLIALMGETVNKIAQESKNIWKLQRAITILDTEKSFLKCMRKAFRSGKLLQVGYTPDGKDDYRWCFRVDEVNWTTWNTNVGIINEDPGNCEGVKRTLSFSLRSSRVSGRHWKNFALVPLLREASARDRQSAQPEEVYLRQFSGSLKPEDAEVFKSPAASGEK
Chain of GABAA channels composed of α1β2γ2 subunits (P14867 28-456): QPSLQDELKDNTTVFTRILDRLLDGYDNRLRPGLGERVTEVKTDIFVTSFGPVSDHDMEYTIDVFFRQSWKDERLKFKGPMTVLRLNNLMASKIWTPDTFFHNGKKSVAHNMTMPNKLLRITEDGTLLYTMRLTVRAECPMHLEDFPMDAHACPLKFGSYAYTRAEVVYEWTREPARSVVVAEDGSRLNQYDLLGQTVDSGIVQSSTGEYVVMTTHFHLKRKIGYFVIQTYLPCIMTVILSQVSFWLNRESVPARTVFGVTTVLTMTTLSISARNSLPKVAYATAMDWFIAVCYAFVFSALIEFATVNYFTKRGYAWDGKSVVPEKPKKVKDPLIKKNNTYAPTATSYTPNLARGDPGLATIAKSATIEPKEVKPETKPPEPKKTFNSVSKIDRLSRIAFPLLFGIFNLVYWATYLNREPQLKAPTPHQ
Chain of GABAA channels composed of α1β2γ2 subunits (P47870 25-512 limits assumed): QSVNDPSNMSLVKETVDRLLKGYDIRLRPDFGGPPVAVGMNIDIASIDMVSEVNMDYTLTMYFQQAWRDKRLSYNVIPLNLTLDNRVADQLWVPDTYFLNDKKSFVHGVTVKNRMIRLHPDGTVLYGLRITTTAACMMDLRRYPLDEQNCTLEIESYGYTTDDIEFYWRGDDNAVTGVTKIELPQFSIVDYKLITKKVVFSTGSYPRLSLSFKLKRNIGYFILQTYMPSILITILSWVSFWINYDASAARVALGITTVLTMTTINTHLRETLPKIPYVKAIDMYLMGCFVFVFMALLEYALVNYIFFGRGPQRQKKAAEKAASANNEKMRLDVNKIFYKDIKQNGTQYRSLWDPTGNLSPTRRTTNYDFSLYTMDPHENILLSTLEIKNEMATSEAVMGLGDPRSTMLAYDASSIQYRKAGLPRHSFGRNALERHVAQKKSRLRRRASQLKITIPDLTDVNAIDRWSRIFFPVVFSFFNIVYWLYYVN
Chain of GABAA channels composed of α1β2γ2 subunits (P18507 40-475): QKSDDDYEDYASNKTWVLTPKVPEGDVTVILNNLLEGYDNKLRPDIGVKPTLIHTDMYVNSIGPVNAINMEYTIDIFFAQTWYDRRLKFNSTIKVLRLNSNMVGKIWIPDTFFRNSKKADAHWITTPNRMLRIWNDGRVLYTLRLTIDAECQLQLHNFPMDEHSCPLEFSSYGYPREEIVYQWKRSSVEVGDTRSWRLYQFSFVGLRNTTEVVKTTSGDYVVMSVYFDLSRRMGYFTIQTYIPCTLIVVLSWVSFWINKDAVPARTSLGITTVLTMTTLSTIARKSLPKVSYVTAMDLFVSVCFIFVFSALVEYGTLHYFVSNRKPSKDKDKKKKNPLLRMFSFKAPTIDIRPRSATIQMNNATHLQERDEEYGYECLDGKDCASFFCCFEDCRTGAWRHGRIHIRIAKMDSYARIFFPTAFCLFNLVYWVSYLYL

Regarding `CCCCN(CCCC)C(=O)/C=C/C=C/c1ccc2c(c1)OCO2` [SCT-29], the “effect on total ambulation / total distance” value with Male mice (C57BI/6N) [1] is “no effect on ambulation”. Besides, the “effects on seizure threshold” value in the experiment with PTZ-induced seizures (Fig. 12) is on record as “particularly active at low concentrations”. Further, the “cation current through TRPV1 receptors” value in experiment [2] is “no current was induced”; in experiment [2] (listed as SCT29) it was “none of the derivatives SCT29, SCT64 or SCT66 induced cation currents”. For the same molecule, in experiment [3], the “modulation of IGABA” value is listed as “positive allosteric modulatory effect by enhancing IGABA”. The “time spent on the open arms (OA) in % of the total time” value (“time spent on the open arms (OA) in %” for short) with Male mice (C57BI/6N) [4] (0.3 mg/kg bodyweight, i.p.) is “not statistically significant”.
On to `CC(C)N(C(=O)/C=C/C=C/c1ccc2c(c1)OCO2)C(C)C` [SCT-46], for which the “cation current through TRPV1 receptors” value in experiment [2] is listed as “no current was induced”.
`CCN(CC)C(=O)/C=C/C=C/c1ccc2c(c1)OCO2` [SCT-54]: the “effect on total ambulation / total distance” value with Male mice (C57BI/6N) [1] is given as “no effect on ambulation”. For the same molecule, the “effects on seizure threshold” value with PTZ-induced seizures (Fig. 12) is “particularly active at low concentrations”.
In the case of `CCCN(CCC)C(=O)/C=C/C=C/c1ccc2c(c1)OCO2` [SCT-64], the “effect on total ambulation / total distance” value in the experiment on Male mice (C57BI/6N) [1] is given as “reduced the total distance”. For the same molecule, in the experiment on PTZ-induced seizures (Fig. 12), the “effects on seizure threshold” value is “particularly active at low concentrations”. Further, the “cation current through TRPV1 receptors” value in experiment [2] is given as “no current was induced”; in experiment [2] (listed as SCT64) it was “none of the derivatives SCT29, SCT64 or SCT66 induced cation currents”. Moreover, the “modulation of IGABA” value in experiment [3] is reported as “positive allosteric modulatory effect by enhancing IGABA”. Moreover, the “time spent on the open arms (OA) in %” value was 41.6 ± 3.2% and 44.2 ± 3.3% with Male mice (C57BI/6N) [4] (0.3 mg/kg bodyweight, i.p.); 59.6 ± 4.9% in the experiment with Male mice (C57BI/6N) [4] (10 mg/kg bodyweight, i.p.). Moreover, in the experiment on Male mice (C57BI/6N) [4] (i.p.), the “total distance travelled in the EPM” value is on record as “reducing slightly the total ambulation at doses ≥1 mg/kg bodyweight”.
Consider `CC(C)CN(CC(C)C)C(=O)/C=C/C=C/c1ccc2c(c1)OCO2` [SCT-66], for which the “effect on total ambulation / total distance” value with Male mice (C57BI/6N) [1] was “reduced the total distance”. Also, the minimal effective dose in the experiment with PTZ-induced seizures (Mus musculus, ip, 0.5 h, i.p., Fig. 12, read-out: doses of first significant effects on seizure threshold) was not below 10 mg/kg. Besides, the “cation current through TRPV1 receptors” value in experiment [2] is “no current was induced”; in experiment [2] (listed as SCT66), “none of the derivatives SCT29, SCT64 or SCT66 induced cation currents”. Also, the “modulation of IGABA” value in experiment [3] is reported as “positive allosteric modulatory effect by enhancing IGABA”. Besides, the “time spent on the open arms (OA) in %” value was 40.8 ± 3.2% and 38.1 ± 5.1% in the experiment with Male mice (C57BI/6N) [4] (0.3 mg/kg bodyweight, i.p.); 46.5 ± 6.6% in the experiment on Male mice (C57BI/6N) [4] (3 mg/kg bodyweight, i.p.). Further, in the experiment with Male mice (C57BI/6N) [4] (i.p.), the “total distance travelled in the EPM” value was “no significant effect on ambulation”.
As for `CCCCN(CCCC)C(=O)/C=C/C=C/c1cc(OC)c(OC)c(OC)c1` [SCT-68], the “cation current through TRPV1 receptors” value in experiment [2] is on record as “no current was induced”.
For the molecule `O=C(/C=C/C=C/c1ccc2c(c1)OCO2)N1CCCCC1` [piperine, Piperine], the “reduction of ambulation compared to control littermates” value with Male mice (C57BI/6N) [1] (i.p.) is on record as “more than 50%”. For the same molecule, the “traveled distance (total ambulation)” value in the experiment on Male mice (C57BI/6N) [1] (i.p.) came to 16.5 ±3.8 m. Also, the seizure threshold turned out to be 46.2 ± 5.44 in the experiment on PTZ-induced seizures (3 mg/kg), 48.7 ± 2.13 in the experiment on PTZ-induced seizures (10 mg/kg) and 30.3 ± 3.43 in the experiment with PTZ-induced seizures (30 mg/kg). In addition, the “time spent on the open arms (OA) in %” value is listed as “no significant effect” in the experiment with Male mice (C57BI/6N) [4] (0.1 mg/kg bodyweight, 30 min after i.p. injection); 42.7 ± 4.4% in the experiment on Male mice (C57BI/6N) [4] (0.3 mg/kg bodyweight, i.p.); 45.6 ± 6.6% in the experiment with Male mice (C57BI/6N) [4] (1 mg/kg bodyweight, i.p.).
